Measurements from patent US6808884B2, “Methods and compositions for detecting polynucleotide duplex damage and errors” (California Institute of Technology, priority 2000, dated 2004).

Assays:
[1] = tested on: DNA duplexes (SEQ ID NO:1 / SEQ ID NO:2) having base-pair mismatches; assay: Photocleavage of 17mer DNA duplexes with varied X-Y base pair, 365 nm irradiation, PAGE analysis; type: biochemical; conditions: duplex 10 μM, complex 1 μM, pH 7.0, 13 min at 365 nm
Protocol: A set of DNA duplexes was prepared having the following sequence: 3′-[…]-5′(SEQ ID NO:1)
5′-[…]-3′(SEQ ID NO:2),
where X and Y were varied to provide A-T, G-C, and the following mismatches: C-C, C-A, T-T, A-A, T-C, T-G, G-A, and G-G. All oligonucleotides were prepared using standard phosphoramidite chemistry, and were purified by reverse phase HPLC. The oligonucleotides were 5′ end-labeled with γ-^32P ATP (Dupont-NEN) and T4 polynucleotide kinase (New England Biolabs).
Duplexes (10 μM) were incubated with Δ or Λ [Rh(bpy)2 (chrysi)]^3+(1 μM in 50 mM Tris, 20 mM NaOAc, 18 mM NaCl, pH 7.0) for 11 minutes, then irradiated for 13 min at 365 nm using an Oriel HgXe arc lamp. The products were analyzed by PAGE (20%, denaturing), imaged using a Molecular Dynamics Phosphorimager. […] Here, cleavage occurred to the 3′ side of the mismatch site. […] Unlike the other recognized mismatches, the cleavage 3′ to C-A results in two products having different gel mobility, possibly the result of chemically different polymer termini. The cleavage of A-A was also distinctive.

[2] = tested on: DNA duplexes with mismatch-sequence context combinations; assay: DNA photocleavage with bases 5′ and 3′ of the mismatch site systematically changed; type: biochemical; conditions: flanking bases 5′ and 3′ of the mismatch systematically changed

Substance | photocleavage at A-A mismatch, at the A-A site itself [1] | photocleavage at A-A mismatch, base 3′ to the site [1] | photocleavage at C-A mismatch ([1]; at the mismatched C and the neighbouring base 3′) | photocleavage intensity at C-C mismatch ([1]; cleavage 3′ of the mismatch site) | photocleavage intensity at T-C mismatch ([1]; compared with C-C) | photocleavage intensity at T-T mismatch ([1]; compared with C-C) | mismatch-sequence context combinations at which photocleavage was observed (count) [2] | mismatch-sequence context combinations at which photocleavage was observed (share) [2] [%] | mismatch pairs cleaved among C-C, C-A, T-T, A-A, T-C, T-G, G-A, G-G [1] | photocleavage at A-A mismatch, relative to the other enantiomer [1]
Δ-[Rh(bpy)2 (chrysi)]Cl3 [Δ-[Rh(bpy)2 (chrysi)]^3+] | small amount of cleavage | strong cleavage | Strong cutting | strongest cleavage intensity | less intense cleavage | less intense cleavage | 83 of 104 | 80 | – | –
Λ[Rh(bpy)2 (chrysi)]Cl3 [Λ enantiomer] | – | – | – | – | – | – | – | – | A-A mismatch is the only pair cleaved | weaker cleavage than the Δ enantiomer
